Test results published in patent publication US20180191012A1, “AQUEOUS […]-BASED REDOX FLOW BATTERIES” (UCHICAGO ARGONNE, LLC, priority 2016, published 2018).

Details: 10 mM compound in 0.5 M aqueous NaCl; well-defined, reversible redox waves

c1cc[n+]2c(c1)-c1cccc[n+]1CC2 [A, N,N′-(ethan-1,2-diyl)-2,2′-bipyridinedium dibromide]
redox potential versus Ag/AgCl: −0.60 V
